This note sets out measurements from article PMC9500072, “Topical application of an irreversible small molecule inhibitor of lysyl oxidases ameliorates skin scarring and fibrosis” (Nature Communications, 2022).

In one assay the target is T1, Human Recombinant MAO-A (Homo sapiens, UniProt P21397).
T1 sequence (P21397 1-527): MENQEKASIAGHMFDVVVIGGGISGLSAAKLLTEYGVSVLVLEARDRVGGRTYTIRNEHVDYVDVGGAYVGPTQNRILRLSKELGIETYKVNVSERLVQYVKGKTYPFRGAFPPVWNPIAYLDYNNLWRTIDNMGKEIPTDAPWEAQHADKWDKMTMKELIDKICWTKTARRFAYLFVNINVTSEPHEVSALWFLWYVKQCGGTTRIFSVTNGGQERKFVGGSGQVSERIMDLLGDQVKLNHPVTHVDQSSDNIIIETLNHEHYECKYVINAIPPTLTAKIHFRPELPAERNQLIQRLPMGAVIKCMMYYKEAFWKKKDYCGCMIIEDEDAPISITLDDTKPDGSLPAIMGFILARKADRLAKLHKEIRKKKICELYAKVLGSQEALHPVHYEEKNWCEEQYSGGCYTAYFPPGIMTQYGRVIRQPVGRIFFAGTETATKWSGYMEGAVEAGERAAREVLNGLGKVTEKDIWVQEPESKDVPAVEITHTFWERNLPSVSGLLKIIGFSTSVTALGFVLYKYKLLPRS
Put plainly: Amine oxidase inhibition profile, MAO-A. The assay is classed as biochemical. An excerpt:
Supplem entary Materi als:
Supplementary Table S1: Amine oxidase inhibition profile of PXS -4787, PXS-6302 and
Supplementary Table S2: Perm eability profile of PXS -6302.

The target in the next assay is T2, Human Recombinant SSAO (Homo sapiens, UniProt Q16853).
T2 sequence (Q16853 1-763): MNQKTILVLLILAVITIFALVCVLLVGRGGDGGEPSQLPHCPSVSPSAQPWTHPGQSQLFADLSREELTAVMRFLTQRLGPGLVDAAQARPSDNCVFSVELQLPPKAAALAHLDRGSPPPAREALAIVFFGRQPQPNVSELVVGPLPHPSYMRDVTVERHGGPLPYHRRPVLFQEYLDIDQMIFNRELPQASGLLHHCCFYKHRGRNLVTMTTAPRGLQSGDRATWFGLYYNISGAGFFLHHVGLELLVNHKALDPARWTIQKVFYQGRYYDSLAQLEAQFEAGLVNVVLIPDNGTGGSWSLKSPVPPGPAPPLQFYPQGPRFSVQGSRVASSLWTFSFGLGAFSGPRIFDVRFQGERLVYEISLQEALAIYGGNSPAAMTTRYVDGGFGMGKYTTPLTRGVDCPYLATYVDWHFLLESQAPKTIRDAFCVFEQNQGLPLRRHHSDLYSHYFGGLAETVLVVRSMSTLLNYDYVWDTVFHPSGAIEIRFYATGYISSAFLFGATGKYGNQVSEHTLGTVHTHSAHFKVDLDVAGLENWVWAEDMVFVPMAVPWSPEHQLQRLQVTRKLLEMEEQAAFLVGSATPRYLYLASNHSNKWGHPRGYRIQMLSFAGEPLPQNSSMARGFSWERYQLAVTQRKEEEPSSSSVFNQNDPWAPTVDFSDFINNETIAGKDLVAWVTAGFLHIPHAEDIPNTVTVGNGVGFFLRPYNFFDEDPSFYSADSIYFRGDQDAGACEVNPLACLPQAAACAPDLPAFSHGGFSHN
The experiment in a line: Compound oxidation assay (substrate propensity) by SSAO. The class given is biochemical. To be noted: for Oxidation by SSAO (hydrogen peroxide generated relative to DMSO): single concentration 30 µM. The procedure:
For compound oxidation assays, the amount of hydrogen peroxide generated at a single concentration (30 µM) of compound relative to DMSO was measured.
Data are expressed as mean ± SEM. Subsequent statistical analysis was performed with unpaired two-sided Student’s t tests. *p < 0.05, **p < 0.01, ***p < 0.001and ****p < 0.0001. Source data are provided as a Source Data file.
This assay determines the substrate propensity of a compound relative to background (dimethyl sulfoxide only). Compound oxidation by rhSSAO was measured by fluorometric assay. Briefly, rhSSAO was incubated for 2 h at 37 °C in HEPES buffer before the addition of an equal volume of Amplex Red ([…]), horseradish peroxidase (4 U/ml), and test compound in the same buffer. The kinetics of the formation of resorufin was measured immediately using Optima reader (BMG Labtech GmbH, Ortenburg, Germany), at 37 °C.

Setting [1] is: read-out: Recombinant MAO-A IC50.

“And” between values parts separate entries of the source, which are not always exact repeats. Equal values may be shown once. Read-outs that look alike come from different tables or passages of the source.

As for `N#CCCN` [BAPN, β-aminoproprionitrile, reference compound], the “Recombinant MAO-A pIC50” value on Human Recombinant MAO-A is recorded as less than 4.5. Besides, the IC50 at Human Recombinant MAO-A (setting [1]) is greater than 30 µM. Also, the “SSAO specificity (Fig 2F), oxidation, individual experiments” value on Human Recombinant SSAO (30) is 1.24 and 1.43 and 1.55 and 1.3 and 1.39; on Human Recombinant SSAO (60), 2.24 and 2.72 and 2.02 and 1.5 and 1.72; on Human Recombinant SSAO (90), 4.91 and 2.48 and 2.66 and 3.66.

Regarding `NC/C=C(\F)CS(=O)(=O)c1ccccc1` [PXS-4787], the IC50 at Human Recombinant MAO-A (setting [1]) is greater than 30 µM. The “Oxidation by SSAO (hydrogen peroxide generated relative to DMSO)” value at Human Recombinant SSAO is reported as 1.3.

In the case of `NC/C=C(\F)C(F)(F)S(=O)(=O)c1ccccc1` [PXS-6302], the concentration for half-maximal inhibition (IC50) on Human Recombinant MAO-A was greater than 30 µM. For the same molecule, the “SSAO specificity (Fig 2F), oxidation, individual experiments” value on Human Recombinant SSAO (30) was 1.48 and 1.33 and 1.2 and 1.19 and 1.18 and 1.24 and 1.1 and 1.3 and 1.37 and 1.13 and 1.23; on Human Recombinant SSAO (60), 1.4 and 1.33 and 1.41; on Human Recombinant SSAO (90) it was 1.53 and 2.99 and 4.36. In addition, the “Oxidation by SSAO (hydrogen peroxide generated relative to DMSO)” value at Human Recombinant SSAO is reported as 1.3.
